Test results from patent publication US20070082910A1, “Specific nad(p)h oxidase inhibitor” (Mitsubishi Pharma Corporation, priority 2003, published 2007).
pIC50: −log10 of the molar value.

Columns and labels:
[1] = tested on: NAD(P)H oxidase in diabetic rat aorta; assay: NAD(P)H oxidase activity (superoxide anion production, lucigenin chemiluminescence) in aorta of streptozotocin diabetic rats after oral administration; assay type: in vivo; details: 10 mg/kg oral, once a day for 3 days
Description: Streptozotocin (40 mg/kg) dissolved in 0.05 M citric acid buffer (pH 4.5) was administered into the tail vein of male Wistar rats (Japan SLC) to prepare diabetic rats. At 1 week to 8 weeks from the intravenous injection of streptozotocin, blood was drawn from the tail vein using a capillary treated with heparin, which was immediately cooled with ice and centrifuged at 3000 rpm, 15 min, 4° C. to give serum. The blood glucose level was measured by enzyme assay using a glucose measurement kit “GLU neo sinotest” (sinotest) and a microplate reader (SPECTRA MAX250, Molecular Devices).
The NAD(P)H oxidase activity was measured by the following method, which was modified by the method of the David. G. Harrison et al. (J. Clin. Invest. 91, 2546-2551, 1993), at 4 days from the start of the test, with superoxide anion production in aorta as an index.
To be specific, normal rat or diabetic rat free of the above-mentioned treatment was exsanguinated from the abdominal aorta, their thoracic aorta was removed. The removed thoracic aorta was immersed in Krebs-Hepes buffer and marginal tissues were removed to prepare an about 5 mm ring specimen. This ring specimen was preincubate in Krebs-Hepes buffer at 37° C. for 10 min and transferred to Krebs-Hepes buffer containing 0.25 mM lucigenin (SIGMA). 500 μM NADH (SIGMA) was added and chemiluminescence value (chemiluminescence: unit RLU: relative light units) was measured using a luminometer (MULTI-BIOLUMAT LB9505C, Warrack.Berthold) at 37° C. for 10 min. The total value of chemiluminescence was calculated from the area under the curve (hereinafter to be referred to as “AUC”) drawn by plotting the chemiluminescence value (vertical axis) relative to the measurement time (horizontal axis). The measured total value of chemiluminescence was divided by the wet weight of the vascular ring specimen and standardized to the superoxide anion production per aorta unit weight.
The inhibitory rate (%) was calculated from the following formula: inhibitory rate (%)=100−[(A−C)/(B−C)]×100
wherein A was the standardized value of chemiluminescence of diabetic rat administered with the test compound, B was the standardized value of chemiluminescence of diabetic rat without administration of the test compound, and C was the standardized value of chemiluminescence of normal rat without administration of the test compound.

NAD(P)H oxidase = assay: IL-8 production inhibitory effect in HUVEC cultured with 44 mM glucose; assay type: cell-based, human; details: for inhibitory rate (%) of IL-8 production: 8 days
Description: NAD(P)HOxidase Inhibitory Effect (Method)
44 mM glucose was added to Human Umbilical Vein Endothelial Cells (Bio Whittaker, hereinafter to be indicated as “HUVEC”), and cells were cultured for 8 days. Then, a lysis buffer containing a surfactant, Triton-X Nonidet P-40, was added, and interleukin-8 (hereinafter to be indicated as “IL-8”) in the cell lysate, which had been produced by NAD(P)H oxidase was measured by an enzyme-linked […]. The test compound was added one day before glucose addition.
The inhibitory rate was calculated from the following formula: inhibitory rate (%)=100−[(A−C)/(B−C)]×100
wherein A is IL-8 production of a cell cultured in the presence of 44 mM glucose with addition of the test compound, B is IL-8 production of a cell cultured in the presence of 44 mM glucose without addition of the test compound, and C is IL-8 production of a cell cultured in the absence of 44 mM glucose and the test compound. The IC50 value was calculated from the dose-effect line drawn by the least squares method based on the obtained inhibitory rate.

leukocyte NADPH oxidase = assay: Effect on leukocyte NADPH oxidase (PMA-stimulated lucigenin chemiluminescence); assay type: cell-based, rat
Description: Blood was drawn from the abdominal aorta of normal male Wister rats (Japan SLC) and immediately mixed with an ice-cold lysis buffer at 42 mL of the buffer per 3 mL of the blood.
After 5 min, the mixture was centrifuged at 4° C., 1100 rpm for 5 min. The precipitate was suspended in an ice-cold Lysis buffer, and centrifuged again at 4° C., 1100 rpm for 5 min. This operation was repeated 3 times to obtain leukocytes. The obtained leukocytes were suspended in Krebs-Hepes buffer and the number of the cells was adjusted to 1×10^6/ml. 0.25 mM Lucigenin and the test agent were added, Phorbol 12-myristate 13-acetate (hereinafter to be indicated as “PMA”, SIGMA) was further added, and the chemiluminescence value was measured at 37° C. for 10 min.
The inhibitory rate (%) was calculated by the following formula: inhibitory rate (%)=100−[(A−C)/(B−C))×[…] wherein A is the total chemiluminescence value of the leukocyte suspension with the addition of the test compound, B is the total chemiluminescence value of the leukocyte suspension (control) without addition of the test compound, and C is the total chemiluminescence value of the leukocyte suspension without stimulation with PMA.

[2] = tested on: cerebral infarction model; assay: Cerebral infarction model (ischemic brain disorder model), ligation of both common carotid arteries; assay type: in vivo, mouse
Description: Male ICR mice (Japan SLC) were anesthetized with ether and fixed in the dorsal position. The both common carotid arteries were ligated using a thread. The wound was closed, and the mice were released in a cage. The death of the mouse was confirmed every 30 min up to 240 min, and cumulative mortality rate of each group was determined. Compound B was orally administered 1 hr before common carotid artery ligation.

[3] = tested on: NAD(P)H oxidase in normal rat aorta; assay: Effect on normal rat NAD(P)H oxidase (superoxide anion production in aorta after administration); assay type: in vivo; details: 10 mg/kg for 3 days
Description: The test compound (10 mg/kg) was administered to normal male Wistar rats (Japan SLC) for 3 days, and the production amount of superoxide anion in the aorta was measured in the same manner as in Experimental Example 2.
The inhibitory rate (%) was calculated by the following formula: inhibitory rate (%)=100−(A/B)×100 wherein A is the standardized chemiluminescence value of the rats administered with the test compound, and B is the standardized chemiluminescence value of the rats without administration of the test compound (control group).

In the case of `C[C@@H](Nc1nnc(-c2ccccc2)c2ccccc12)c1ccccc1` [compound B], the “inhibitory rate (%), NAD(P)H oxidase in diabetic rat aorta” value [1] was 88.5%, the pIC50 (NAD(P)H oxidase; from dose-effect line by least squares) was greater than 8.00 and the “inhibitory rate (%) of IL-8 production” value (NAD(P)H oxidase; test compound concentration 0.01 μM) was 63.8%. The “inhibitory rate (%) of IL-8 production” value (NAD(P)H oxidase; test compound concentration 0.1 μM) was 77.8%, the “inhibitory rate (%) of IL-8 production” value (NAD(P)H oxidase; test compound concentration 1 μM) was 72.0% and the “inhibitory rate (%), leukocyte NADPH oxidase” value (leukocyte NADPH oxidase; 1 μM, PMA-stimulated rat leukocytes, mean ± standard error) was 11.7 ± 24.2%. The “inhibitory effect on leukocyte NADPH oxidase” value (leukocyte NADPH oxidase; result in words) was “did not show an inhibitory effect on leukocyte NADPH oxidase”, the “number of deaths in interval” value ([2]; 1 mg/kg oral 1 hr before ligation, 0-30 min) was 15 and the “number of deaths in interval” value ([2]; 1 mg/kg oral, 31-60 min) was 2. For the same compound, the “number of deaths in interval” value ([2]; 1 mg/kg oral, 61-90 min) was 2, the “number of deaths in interval” value ([2]; 1 mg/kg oral, 91-120 min) was 0 and the “number of deaths in interval” value ([2]; 1 mg/kg oral, 121-150 min) was 0. The “number of deaths in interval” value ([2]; 1 mg/kg oral, 151-180 min) was 0, the “number of deaths in interval” value ([2]; 1 mg/kg oral, 181-210 min) was 0 and the “number of deaths in interval” value ([2]; 1 mg/kg oral, 211-240 min) was 0. The cumulative mortality rate ([2]; 1 mg/kg oral, up to 30 min) was 78.9%, the cumulative mortality rate ([2]; 1 mg/kg oral, up to 60 min) was 84.2% and the cumulative mortality rate ([2]; 1 mg/kg oral, up to 90 min) was 94.7%. For the same compound, the “number of deaths in interval” value ([2]; 3 mg/kg oral 1 hr before ligation, 0-30 min) was 11, the “number of deaths in interval” value ([2]; 3 mg/kg oral, 31-60 min) was 5 and the “number of deaths in interval” value ([2]; 3 mg/kg oral, 61-90 min) was 0. The “number of deaths in interval” value ([2]; 3 mg/kg oral, 91-120 min) was 0, the “number of deaths in interval” value ([2]; 3 mg/kg oral, 121-150 min) was 1 and the “number of deaths in interval” value ([2]; 3 mg/kg oral, 151-180 min) was 0. For the same compound, the “number of deaths in interval” value ([2]; 3 mg/kg oral, 181-210 min) was 0, the “number of deaths in interval” value ([2]; 3 mg/kg oral, 211-240 min) was 0 and the cumulative mortality rate ([2]; 3 mg/kg oral, up to 30 min) was 57.9%. For the same compound, the cumulative mortality rate ([2]; 3 mg/kg oral, up to 60 min) was 84.2%, the cumulative mortality rate ([2]; 3 mg/kg oral, up to 150 min) was 89.5% and the “number of deaths in interval” value ([2]; 10 mg/kg oral 1 hr before ligation, 0-30 min) was 8. For the same compound, the “number of deaths in interval” value ([2]; 10 mg/kg oral, 31-60 min) was 6, the “number of deaths in interval” value ([2]; 10 mg/kg oral, 61-90 min) was 2 and the “number of deaths in interval” value ([2]; 10 mg/kg oral, 91-120 min) was 1. The “number of deaths in interval” value ([2]; 10 mg/kg oral, 121-150 min) was 0, the “number of deaths in interval” value ([2]; 10 mg/kg oral, 151-180 min) was 0 and the “number of deaths in interval” value ([2]; 10 mg/kg oral, 181-210 min) was 0. The “number of deaths in interval” value ([2]; 10 mg/kg oral, 211-240 min) was 0, the cumulative mortality rate ([2]; 10 mg/kg oral, up to 30 min) was 40.0% and the cumulative mortality rate ([2]; 10 mg/kg oral, up to 60 min) was 70.0%. The cumulative mortality rate ([2]; 10 mg/kg oral, up to 90 min) was 80.0%, the cumulative mortality rate ([2]; 10 mg/kg oral, up to 120 min) was 85.0% and the “mortality rate improving effect in brain ischemia model” value ([2]; result in words) was “a mortality rate improving effect was seen”. For the same compound, the “inhibitory rate (%), NAD(P)H oxidase in normal rat aorta” value [3] was −1.3%, the “effect on superoxide anion production in normal rat” value ([3]; result in words) was “did not affect the superoxide anion production” and the “chemiluminescence (×10^5 RLU/wet weight of aorta)” value ([3]; normal rat aorta, mean ± standard error) was 4.01 ± 6.0 ×10^5 RLU/wet weight of aorta.
